B1: EcTyrRS: Escherichia coli tyrosyl-tRNA synthetase, expressed with tRNACUA in yeast (protein, UniProt P0AGJ9 2-424, looked up)
Tyrosine--tRNA ligase: ASSNLIKQLQERGLVAQVTDEEALAERLAQGPIALYCGFDPTADSLHLGHLVPLLCLKRFQQAGHKPVALVGGATGLIGDPSFKAAERKLNTEETVQEWVDKIRKQVAPFLDFDCGENSAIAANNYDWFGNMNVLTFLRDIGKHFSVNQMINKEAVKQRLNREDQGISFTEFSYNLLQGYDFACLNKQYGVVLQIGGSDQWGNITSGIDLTRRLHQNQVFGLTVPLITKADGTKFGKTEGGAVWLDPKKTSPYKFYQFWINTADADVYRFLKFFTFMSIEEINALEEEDKNSGKAPRAQYVLAEQVTRLVHGEEGLQAAKRITECLFSGSLSALSEADFEQLAQDGVPMVEMEKGADLMQALVDSELQPSRGQARKTIASNAITINGEKQSDPEYFFKEEDRLFGRFTLLRRGKKNYCLICWK

Columns and labels:
position 33 of hSOD = assay: LC-MS/MS of tryptic peptide VY*GSIK of mutant hSOD: identity of the amino acid incorporated; parameters: species or system Saccharomyces cerevisiae; conditions: from the signal-to-noise ratio of the peptide spectra; hSOD position 33
Protocol: The identity of the amino acid incorporated was determined by subjecting a tryptic digest of the mutant protein to liquid chromatography and tandem mass spectrometry. For example, for mass spectrometry protein bands were visualized by colloidal Coomassie stain. Gel bands corresponding to wild-type and mutant SOD were excised from polyacrylamide gels, sliced into 1.5-mm cubes, reduced and alkylated, then subjected to trypsin hydrolysis essentially as described. See, e.g., A. Shevchenko, et al., (1996), Analytical Chemistry 68, 850-858. Tryptic peptides containing the unnatural amino acid were analyzed by nanoflow reversed-phase HPLC/μESI/MS with an LCQ ion trap mass spectrometer. Liquid chromatography tandem mass spectrometry (LC-MS/MS) analysis was performed on a Finnigan LCQ Deca ion trap mass spectrometer (Thermo Finnigan) fitted with a Nanospray HPLC (Agilent 1100 series). See, e.g., FIG. 10, Panels A-H. […]
For example, the wild-type and mutant hSOD were purified using nickel affinity column and protein bands were visualized by colloidal Coomassie stain. […] Tryptic peptides containing the unnatural amino acid were analyzed by nanoflow reversed-phase HPLC/μESI/MS with an LCQ ion trap mass spectrometer. […]

[1] = tested on: GAL4 responsive HIS3, URA3 and lacZ reporters in MaV203; assay: Growth of selection strain MaV203:pGADGAL4(2TAG) harboring synthetase plasmids on selective media (-ura, -his + 3-AT, 5-FOA, X-GAL); assay type: cell-based, Saccharomyces cerevisiae; conditions: MaV203 containing pGADGAL4(T44TAG, R110TAG)
Protocol: S. cerevisiae strain MaV203, (Invitrogen) is MATα; leu2-3,112; trp1 109;his3 Δ200;ade2-101;cyh2^R;cyh1^R;GAL4 Δ; gal80 Δ; GAL1::lacZ; HIS3UASGAL1::HIS3@LYS2; SPAL10UASGAL1::URA3. Yeast media were purchased from Clontech, 5-FOA and X-GAL were from Invitrogen and 3-AT was from BIO 101. YPER (Yeast Protein Extraction Reagent) and ONPG were purchased from Pierce Chemicals. Plasmid transformations were performed by the PEG/Lithium actetate method (see, e.g., D. Burke, et al., (2000) Methods in Yeast Genetics. Cold Spring Harbor Laboratory Press, Cold Spring Harbor, N.Y.) and transformants selected on the appropriate synthetic complete dropout media. To test the phenotypes conferred by various plasmid combinations on MaV203 yeast colonies from synthetic complete dropout plates of each transformation were resuspended in 15 μL of sterile water and streaked on the selective media of interest. […] The OD660 of 100 μL of cells, and several dilutions of cells were recorded in parallel in a 96 well microtiter plate. […] Upon color development, cells were pelleted by centrifugation, the supernatant transferred to a clean 96 well microtiter plate (Nunclon, cat.# 167008), and the A420 recorded. […] ONPG hydrolysis was calculated using the equation: beta-galactosidase units=[…]. […] Spectrophotometric readings were performed on a SPECTRAmax190 plate reader. […]

Molecule	incorporation purity (position 33 of hSOD) [%]	growth phenotype on 3-AT plates [1]
CC(=O)c1ccc(C[C@H](N)C(=O)O)cc1 [p-acetyl-L-phenylalanine]	≥ 99.8	
B1		grew robustly on plates with 3-AT concentrations up to 75 mM

Source: patent publication US7888063B2, “Unnatural reactive amino acid genetic code additions” (The Scripps Research Institute, priority 2003, dated 2011)
